Experimental data reported in patent US20250195521A1 (Revolution Medicines, Inc., priority 2020, published 2025).

Tests used:
[1] = system: NCI-H358 cells (K-Ras G12C); assay: CellTiter-Glo cell viability, NCI-H358; assay type: cell-based, human; settings: Homo sapiens, NCI-H358, 120 h, K-Ras G12C, 5-day treatment; read-out: H358 Cell Viability IC50
Method: Note—The following protocol describes a procedure for monitoring cell viability of K-Ras mutant cancer cell lines in response to a compound of the invention. Other RAS isoforms may be employed, though the number of cells to be seeded will vary based on cell line used.
Test compounds (132.5 nl) were directly dispensed into the assay plates containing cells. […] On day 5, assay plates and their contents were equilibrated to room temperature for approximately 30 minutes. […] Luminescence was measured using the PerkinElmer Enspire. Data were normalized by the following: (Sample signal/Avg. DMSO)*100. The data were fit using a four-parameter logistic fit.

[2] = system: Capan-1 cells (K-Ras G12V); assay: CellTiter-Glo cell viability, Capan-1; assay type: cell-based, human; settings: Homo sapiens, CAPAN-1, 120 h, K-Ras G12V, 5-day treatment; read-out: Capan-1 Cell Viability IC50
Summary of the method: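 Luminescence read on day 5 after ~30 min room-temperature equilibration; compounds added directly to plated cells. Values = (sample signal/avg DMSO)*100, four-parameter logistic fit.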

KRAS G12S = KRAS G12S (Homo sapiens (Human), UniProt P01116+P62937, G12S); assay: Ras-Raf disruption/FRET/MOA assay (BRAF RBD, Cyclophilin A); assay type: biochemical; settings: read-out: KRAS G12S FRET IC50
Summary of the method: (§1)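 25 μM tagless Cyclophilin A, 12.5 nM His6-Ras-GMPPNP and 50 nM GST-BRAF RBD in HEPES pH 7.3 buffer with 5 mM MgCl2, with compound (10-point 3-fold series from 30 μM final) for 3 h at 25 °C. Anti-His Eu and anti-GST APC then added for 1.5 h. IC50 from TR-FRET ratio decrease versus DMSO.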

KRAS WT = KRAS WT (Homo sapiens (Human), UniProt P01116+P62937); assay: as above; assay type: biochemical; settings: read-out: KRAS WT FRET data IC50
Summary of the method: as §1

KRAS G12D = KRAS G12D (Homo sapiens (Human), UniProt P01116+P62937, G12D); assay: as above; assay type: biochemical; settings: read-out: KRAS G12D FRET IC50
Summary of the method: as §1

KRAS G12C = KRAS G12C (Homo sapiens (Human), UniProt P01116+P62937, G12C); assay: as above; assay type: biochemical; settings: read-out: KRAS G12C FRET IC50
Summary of the method: as §1

KRAS G12V = KRAS G12V (Homo sapiens (Human), UniProt P01116+P62937, G12V); assay: as above; assay type: biochemical; settings: read-out: KRAS G12V FRET IC50
Summary of the method: as §1

KRAS G13C = KRAS G13C (Homo sapiens (Human), UniProt P01116+P62937, G13C); assay: as above; assay type: biochemical; settings: read-out: KRAS G13C FRET IC50
Summary of the method: as §1

KRAS G13D = KRAS G13D (Homo sapiens (Human), UniProt P01116+P62937, G13D); assay: as above; assay type: biochemical; settings: read-out: KRAS G13D FRET data IC50
Summary of the method: as §1

NRAS G12C = NRAS G12C (Homo sapiens (Human), UniProt P01111+P62937, G12C); assay: as above; assay type: biochemical; settings: read-out: NRAS G12C FRET data IC50
Summary of the method: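 TR-FRET read after 1.5 h with 10 nM anti-His Eu-W1024 and 50 nM anti-GST APC, following 3 h at 25 °C of GMPPNP-loaded His6-Ras (12.5 nM), GST-BRAF RBD (50 nM) and Cyclophilin A (25 μM) with compound from 30 μM final, 10 points, 3-fold. IC50 reported; pH 7.3 HEPES, 100 mM NaCl.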

KRAS G13D, sequence (P01116 other isoform, or with tags, fused parts or gaps G13D): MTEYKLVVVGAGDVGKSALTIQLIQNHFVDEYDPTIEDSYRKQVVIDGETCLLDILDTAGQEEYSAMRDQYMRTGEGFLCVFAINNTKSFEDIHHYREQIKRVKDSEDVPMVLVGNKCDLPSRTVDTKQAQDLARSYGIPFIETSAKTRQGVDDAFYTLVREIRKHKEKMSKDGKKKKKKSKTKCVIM
KRAS G13D, sequence (P62937 whole entry): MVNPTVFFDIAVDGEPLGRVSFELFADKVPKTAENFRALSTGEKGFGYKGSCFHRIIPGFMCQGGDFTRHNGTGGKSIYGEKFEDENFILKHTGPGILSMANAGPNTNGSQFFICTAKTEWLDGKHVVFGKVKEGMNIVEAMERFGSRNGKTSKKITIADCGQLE
KRAS G13C, sequence (P01116 other isoform, or with tags, fused parts or gaps G13C): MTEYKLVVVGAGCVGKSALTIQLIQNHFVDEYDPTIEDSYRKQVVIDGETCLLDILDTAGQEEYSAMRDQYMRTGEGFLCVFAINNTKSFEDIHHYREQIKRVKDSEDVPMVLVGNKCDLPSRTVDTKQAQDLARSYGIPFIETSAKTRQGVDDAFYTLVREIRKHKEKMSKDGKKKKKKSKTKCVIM
KRAS G13C, sequence (P62937 whole entry): as the sequence (P62937 whole entry) above
KRAS G12D, sequence (P01116 other isoform, or with tags, fused parts or gaps G12D): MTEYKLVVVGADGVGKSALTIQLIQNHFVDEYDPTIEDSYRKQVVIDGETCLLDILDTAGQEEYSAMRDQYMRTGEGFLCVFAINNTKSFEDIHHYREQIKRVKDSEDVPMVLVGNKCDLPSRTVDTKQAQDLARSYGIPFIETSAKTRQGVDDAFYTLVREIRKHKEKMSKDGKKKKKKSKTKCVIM
KRAS G12D, sequence (P62937 whole entry): as the sequence (P62937 whole entry) above
KRAS G12S, sequence (P01116 other isoform, or with tags, fused parts or gaps G12S): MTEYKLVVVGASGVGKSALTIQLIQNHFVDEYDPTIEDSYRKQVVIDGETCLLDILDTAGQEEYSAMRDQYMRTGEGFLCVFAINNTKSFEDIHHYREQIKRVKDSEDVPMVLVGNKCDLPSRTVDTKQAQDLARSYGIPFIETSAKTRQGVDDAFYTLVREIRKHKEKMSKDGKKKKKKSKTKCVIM
KRAS G12S, sequence (P62937 whole entry): as the sequence (P62937 whole entry) above
KRAS WT, sequence (P01116 other isoform, or with tags, fused parts or gaps): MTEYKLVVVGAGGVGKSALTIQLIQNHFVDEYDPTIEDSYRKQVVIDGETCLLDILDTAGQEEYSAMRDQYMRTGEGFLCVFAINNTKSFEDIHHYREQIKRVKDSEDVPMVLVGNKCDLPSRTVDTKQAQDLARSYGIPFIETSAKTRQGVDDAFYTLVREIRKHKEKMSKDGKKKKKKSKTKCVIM
KRAS WT, sequence (P62937 whole entry): as the sequence (P62937 whole entry) above
KRAS G12V, sequence (P01116 other isoform, or with tags, fused parts or gaps G12V): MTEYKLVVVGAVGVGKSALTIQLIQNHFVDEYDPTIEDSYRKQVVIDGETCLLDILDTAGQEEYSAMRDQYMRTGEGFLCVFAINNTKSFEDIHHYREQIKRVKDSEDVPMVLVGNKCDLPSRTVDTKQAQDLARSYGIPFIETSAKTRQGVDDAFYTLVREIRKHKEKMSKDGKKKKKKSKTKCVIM
KRAS G12V, sequence (P62937 whole entry): as the sequence (P62937 whole entry) above
NRAS G12C, sequence (P01111 whole entry G12C): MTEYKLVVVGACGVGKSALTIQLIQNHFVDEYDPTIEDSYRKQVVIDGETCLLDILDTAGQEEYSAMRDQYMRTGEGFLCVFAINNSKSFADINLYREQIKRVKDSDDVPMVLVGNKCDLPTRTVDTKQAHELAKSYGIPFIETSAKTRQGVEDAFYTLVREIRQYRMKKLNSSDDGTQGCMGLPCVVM
NRAS G12C, sequence (P62937 whole entry): as the sequence (P62937 whole entry) above
KRAS G12C, sequence (P01116-2 other isoform, or with tags, fused parts or gaps G12C): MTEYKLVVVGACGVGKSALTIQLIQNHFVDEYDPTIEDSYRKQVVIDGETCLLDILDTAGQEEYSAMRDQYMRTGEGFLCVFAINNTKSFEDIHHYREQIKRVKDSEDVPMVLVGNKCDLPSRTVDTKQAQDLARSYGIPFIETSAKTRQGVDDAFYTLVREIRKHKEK
KRAS G12C, sequence (P62937 whole entry): as the sequence (P62937 whole entry) above

SMILES: CCn1c(-c2cccnc2[C@H](C)OC)c2c3cc(ccc31)-c1cc(O)cc(c1)C[C@H](NC(=O)[C@H](C(C)C)N(C)C(=O)C1CCC1)C(=O)N1CCC[C@H](N1)C(=O)OCC(C)(C)C2 [Compound A218]
- IC50 [1]: 0.01 to 0.1 µM
- IC50 [2]: 0.01 to 0.1 µM
- IC50 (KRAS G12S): 0.01 to 0.1 µM
- IC50 (KRAS WT): 0.01 to 0.1 µM
- IC50 (KRAS G12D): 0.1 to 1 µM
- IC50 (KRAS G12C): 0.01 to 0.1 µM
- IC50 (KRAS G12V): 0.01 to 0.1 µM
- IC50 (KRAS G13C): 0.01 to 0.1 µM
- IC50 (KRAS G13D): 0.1 to 1 µM
- IC50 (NRAS G12C): 0.01 to 0.1 µM

SMILES: CCn1c(-c2cccnc2[C@H](C)OC)c2c3cc(ccc31)-c1cc(O)cc(c1)C[C@H](NC(=O)[C@H](C(C)C)N(C)C(=O)C1CC1)C(=O)N1CCC[C@H](N1)C(=O)OCC(C)(C)C2 [Compound A224]
- IC50 [1]: 0.01 to 0.1 µM
- IC50 [2]: 0.01 to 0.1 µM
- IC50 (KRAS G12S): 0.01 to 0.1 µM
- IC50 (KRAS WT): 0.01 to 0.1 µM
- IC50 (KRAS G12D): 0.1 to 1 µM
- IC50 (KRAS G12C): 0.01 to 0.1 µM
- IC50 (KRAS G12V): 0.01 to 0.1 µM
- IC50 (KRAS G13C): 0.01 to 0.1 µM
- IC50 (KRAS G13D): 0.01 to 0.1 µM
- IC50 (NRAS G12C): 0.01 to 0.1 µM

SMILES: CCn1c(-c2cccnc2[C@H](C)OC)c2c3cc(ccc31)-c1cc(O)cc(c1)C[C@H](NC(=O)[C@H](C(C)C)N(C)C(=O)[C@H]1CCCO1)C(=O)N1CCC[C@H](N1)C(=O)OCC(C)(C)C2 [Compound A240]
- IC50 [1]: 0.01 to 0.1 µM
- IC50 [2]: 0.01 to 0.1 µM
- IC50 (KRAS G12S): 0.1 to 1 µM
- IC50 (KRAS WT): 0.1 to 1 µM
- IC50 (KRAS G12D): 0.1 to 1 µM
- IC50 (KRAS G12C): 0.01 to 0.1 µM
- IC50 (KRAS G12V): 0.1 to 1 µM
- IC50 (KRAS G13C): 0.01 to 0.1 µM
- IC50 (KRAS G13D): 0.1 to 1 µM
- IC50 (NRAS G12C): 0.01 to 0.1 µM

SMILES: CCn1c(-c2cccnc2[C@H](C)OC)c2c3cc(ccc31)-c1cc(O)cc(c1)C[C@H](NC(=O)[C@H](C(C)C)N(C)C(=O)[C@H]1CCCCNC1)C(=O)N1CCC[C@H](N1)C(=O)OCC(C)(C)C2 [Compound A242]
- IC50 [1]: 0.01 to 0.1 µM
- IC50 [2]: 0.1 to 1 µM
- IC50 (KRAS G12S): 0.01 to 0.1 µM
- IC50 (KRAS WT): 0.01 to 0.1 µM
- IC50 (KRAS G12D): 0.01 to 0.1 µM
- IC50 (KRAS G12C): 0.01 to 0.1 µM
- IC50 (KRAS G12V): 0.1 to 1 µM
- IC50 (KRAS G13C): 0.01 to 0.1 µM
- IC50 (KRAS G13D): 0.01 to 0.1 µM
- IC50 (NRAS G12C): 0.01 to 0.1 µM

SMILES: CCn1c(-c2cccnc2[C@H](C)OC)c2c3cc(ccc31)-c1csc(n1)C[C@H](NC(=O)[C@H](C(C)C)N(C)C(=O)[C@H]1CCN(C(C)=O)C1)C(=O)N1CCC[C@H](N1)C(=O)OCC(C)(C)C2 [Compound A244]
- IC50 [1]: 1 to 10 µM
- IC50 [2]: 0.1 to 1 µM
- IC50 (KRAS G12S): 1 to 10 µM
- IC50 (KRAS WT): 1 to 10 µM
- IC50 (KRAS G12D): > 10 µM
- IC50 (KRAS G12C): 1 to 10 µM
- IC50 (KRAS G12V): 1 to 10 µM
- IC50 (KRAS G13C): 1 to 10 µM
- IC50 (KRAS G13D): > 10 µM
- IC50 (NRAS G12C): 1 to 10 µM

SMILES: CCn1c(-c2cccnc2[C@H](C)OC)c2c3cc(ccc31)-c1cc(O)cc(c1)C[C@H](NC(=O)[C@H](C(C)C)N(C)C(=O)C1Cc3nccn3C1)C(=O)N1CCC[C@H](N1)C(=O)OCC(C)(C)C2 (some centres unmarked) [Compound A249]
- IC50 [1]: 0.01 to 0.1 µM
- IC50 [2]: 0.1 to 1 µM
- IC50 (KRAS G12S): 0.01 to 0.1 µM
- IC50 (KRAS WT): 0.01 to 0.1 µM
- IC50 (KRAS G12D): 0.01 to 0.1 µM
- IC50 (KRAS G12C): 0.01 to 0.1 µM
- IC50 (KRAS G12V): 0.01 to 0.1 µM
- IC50 (KRAS G13C): 0.01 to 0.1 µM
- IC50 (KRAS G13D): 0.01 to 0.1 µM
- IC50 (NRAS G12C): 0.01 to 0.1 µM

SMILES: CCn1c(-c2cnccc2COC)c2c3cc(ccc31)-c1cc(O)cc(c1)C[C@H](NC(=O)C(C)C1CCOCC1)C(=O)N1CCC[C@H](N1)C(=O)OCC(C)(C)C2 (some centres unmarked) [Compound A258]
- IC50 [1]: 1 to 10 µM
- IC50 [2]: > 10 µM
- IC50 (KRAS G12S): 1 to 10 µM
- IC50 (KRAS WT): 1 to 10 µM
- IC50 (KRAS G12D): > 10 µM
- IC50 (KRAS G12C): 1 to 10 µM
- IC50 (KRAS G12V): 1 to 10 µM
- IC50 (KRAS G13C): 0.1 to 1 µM
- IC50 (KRAS G13D): 1 to 10 µM
- IC50 (NRAS G12C): 1 to 10 µM

SMILES: CCn1c(-c2cccnc2[C@H](C)OC)c2c3cc(ccc31)-c1csc(n1)C[C@H](NC(=O)[C@H](C(C)C)N(C)C(=O)N1CCN(C)CC13CC3)C(=O)N1CCC[C@H](N1)C(=O)OCC(C)(C)C2 [Compound A307]
- IC50 [1]: 0.01 to 0.1 µM
- IC50 [2]: 0.1 to 1 µM
- IC50 (KRAS G12S): 1 to 10 µM
- IC50 (KRAS WT): 1 to 10 µM
- IC50 (KRAS G12D): 1 to 10 µM
- IC50 (KRAS G12C): 1 to 10 µM
- IC50 (KRAS G12V): 1 to 10 µM
- IC50 (KRAS G13C): 1 to 10 µM
- IC50 (KRAS G13D): 1 to 10 µM
- IC50 (NRAS G12C): 1 to 10 µM
